Experimental findings from US20060264460A1 (Wyeth, priority 2005, published 2006) are described below.

The structures appear in SMILES notation.

In one assay the target is T1, human Cot/Tpl2 kinase (Homo sapiens, UniProt P41279).
T1 construct: human Cot/Tpl2 kinase construct encoding residues 30-398; 6His (N); made in house; host or cells: Sf9 insect cells, baculovirus system (BD Biosciences)
T1 sequence (P41279 30-398): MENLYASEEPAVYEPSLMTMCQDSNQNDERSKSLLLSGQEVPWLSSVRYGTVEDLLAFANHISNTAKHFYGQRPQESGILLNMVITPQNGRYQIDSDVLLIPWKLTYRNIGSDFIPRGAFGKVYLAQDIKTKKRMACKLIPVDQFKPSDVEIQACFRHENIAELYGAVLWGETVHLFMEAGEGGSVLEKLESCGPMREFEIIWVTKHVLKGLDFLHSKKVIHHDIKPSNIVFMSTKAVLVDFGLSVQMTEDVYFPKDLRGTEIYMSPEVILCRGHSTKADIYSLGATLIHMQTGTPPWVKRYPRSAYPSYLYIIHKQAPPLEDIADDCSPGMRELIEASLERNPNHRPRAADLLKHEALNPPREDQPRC
Description: Tpl2/Cot kinase assay: GST-MEK1 phosphorylation detected by ELISA (DELFIA Eu). Type of assay: biochemical. The following applies: 0.4 nM Tpl2, 35 nM GST-MEK1, 50 uM ATP, 1 h at 30° C. In a few lines:
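Substrate phosphorylation (GST-MEK1 Ser217/221) quantified by DELFIA europium ELISA, yielding IC50 values. Reaction: 1 h at 30° C, pH 7.2 MOPS buffer, 50 uM ATP, 35 nM GST-MEK1, 0.4 nM monomeric His-Tpl2 purified from Sf9 cells, compounds at 1% final DMSO; stopped with EDTA.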
For `CCOC(=O)CNc1ccc2ncc(C#N)c(Nc3ccc(F)c(Cl)c3)c2c1` [Example 174, Ethyl 2-(4-(3-chloro-4-fluorophenylamino)-3-cyanoquinolin-6-ylamino)acetate], the half-inhibitory concentration (IC50) (commonly the point on the concentration scale where inhibition reaches its midpoint) was 3.5 µM.
Same read-out and setting: the result for `CC(C)(C)OC(=O)N1CCCC(CNc2ccc3ncc(C#N)c(Nc4ccc(F)c(Cl)c4)c3c2)C1` (stereo not shown) [Example 63, 3-{[4-(3-Chloro-4-fluoro-phenylamino)-3-cyano-quinolin-6-ylamino]-methyl}-piperidine-1-carboxylic acid tert-butyl ester] reads over 40 µM; that for `N#Cc1cnc2ccc(NCc3cccc(OC(F)(F)F)c3)cc2c1Nc1ccc(F)c(Cl)c1` [Example 148, 6-(3-(trifluoromethoxy)benzylamino)-4-(3-chloro-4-fluorophenylamino)quinoline-3-carbonitrile], 2.2 µM.
The same measure, in the same setting: the result for `N#Cc1cnc2ccc(NCc3cccc(Br)n3)cc2c1Nc1ccc(F)c(Cl)c1` [Example 258, 6-{[(6-bromopyridin-2-yl)methyl]amino}-4-[(3-chloro-4fluorophenyl)amino]quinoline-3-carbonitrile] reads 0.27 µM.
Molecule `N#Cc1cnc2ccc(NCc3ccccc3)cc2c1Nc1ccc(N2CCOCC2)cc1` [Example 66, 6-(benzylamino)-4-(4-morpholinophenylamino)quinoline-3-carbonitrile] had an IC50 of over 40 µM.
The same measure, in the same setting: the figure for `Cn1ccnc1CNc1cc(F)c2ncc(C#N)c(Nc3ccc(F)c(Cl)c3)c2c1` [Example 268, 4-[(3-Chloro-4-fluorophenyl)amino]-8-fluoro-6-{[(1-methyl-1H-imidazol-2-yl)methyl]amino}quinoline-3-carbonitrile] is 0.012 µM; for `N#Cc1cnc2ccc(NCc3ccc(F)cc3)cc2c1Nc1ccc(F)c(Cl)c1` [Example 146, 6-(4-fluorobenzylamino)-4-(3-chloro-4-fluorophenylamino)quinoline-3-carbonitrile] it is 5.3 µM.
The molecule `N#Cc1cnc2c(NC(=O)c3ccccc3)cc(NCc3cccnc3)cc2c1Nc1cccc(Cl)c1` [Example 73, N-(4-(3-chlorophenylamino)-3-cyano-6-(pyridin-3-ylmethylamino)quinolin-8-yl)benzamide] yielded an IC50 of over 40 µM.
`N#Cc1cnc2c(Cl)cc(NCc3cccnc3)cc2c1Nc1ccc(F)c(Cl)c1` [Example 178, 8-chloro-4-(3-chloro-4-fluorophenylamino)-6-(pyridin-3-ylmethylamino)quinoline-3-carbonitrile] returned a 50% inhibitory concentration (IC50) of 0.016 µM.
`Cc1cccc(CNc2cc(Cl)c3ncc(C#N)c(Nc4ccc(F)c(Cl)c4)c3c2)[n+]1[O-]` [Example 195, 8-chloro-4-[(3-chloro-4-fluorophenyl)amino]-6-{[(6-methyl-1-oxidopyridin-2-yl)methyl]amino}quinoline-3-carbonitrile]: inhibition was half-maximal at 0.032 µM (IC50).
`CS(=O)(=O)Nc1cccc(CNc2ccc3ncc(C#N)c(Nc4ccc(F)c(Cl)c4)c3c2)c1` [Example 18, N-(3-{[4-(3-Chloro-4-fluoro-phenylamino)-3-cyano-quinolin-6-ylamino]-methyl}-phenyl)-methanesulfonamide] gave an IC50 of 0.28 µM.
Consider `CNc1nc(SC)ncc1CNc1cc(Cl)c2ncc(C#N)c(Nc3ccc(F)c(Cl)c3)c2c1` [Example 280, 8-chloro-4-[(3-chloro-4-fluorophenyl)amino]-6-({[4-(methylamino)-2-(methylthio)pyrimidin-5-yl]methyl]amino)quinoline-3-carbonitrile], for which the IC50 was over 40 µM.
The same measure, in the same setting: the figure for `N#Cc1cnc2ccc(NCc3ccc(-n4ccnc4)cc3)cc2c1Nc1ccc(F)c(Cl)c1` [Example 12, 4-(3-Chloro-4-fluoro-phenylamino)-6-(4-imidazol-1-yl-benzylamino)-quinoline-3-carbonitrile] is 1.3 µM.
In the case of `CC(=O)Nc1ccc(CNc2ccc3ncc(C#N)c(Nc4ccc(F)c(Cl)c4)c3c2)cc1` [Example 16, N-(4-{[4-(3-Chloro-4-fluoro-phenylamino)-3-cyano-quinolin-6-ylamino]-methyl}-phenyl)-acetamide], the IC50 is 0.227 µM.
Still for that read-out and setting: the result for `N#Cc1cnc2c(Br)cc(NCc3cn(CCN4CCOC4=O)nn3)cc2c1Nc1ccc(F)c(Cl)c1` [Example 223, 8-bromo-4-(3-chloro-4-fluorophenylamino)-6-((1-(2-(2-oxooxazolidin-3-yl)ethyl)-1H-1,2,3-triazol-4-yl)methylamino)quinoline-3-carbonitrile] reads 0.037 µM; that for `N#Cc1cnc2ccc(NCc3ccn[nH]3)cc2c1NC1CCCCCC1` [Example 251, 4-(cycloheptylamino)-6-[(1H-pyrazol-5-ylmethyl)amino]quinoline-3-carbonitrile], 0.65 µM.

Still in this assay, the particulars now being: Table 2; Tpl2/Cot kinase, GST-MEK1 substrate, 50 uM ATP.
The molecule `N#Cc1cnc2c(Br)cc(NCc3ccc(OC(F)(F)C(F)F)cc3)cc2c1Nc1ccc(F)c(Cl)c1` [Example 424] had a 50% inhibitory concentration (IC50) of over 40 µM.
Same read-out and setting: the figure for `CC(=O)c1cc(NCc2cnc[nH]2)cc2c(Nc3ccc(F)c(Cl)c3)c(C#N)cnc12` [Example 459] is 0.023 µM; for `N#Cc1cnc2ccc(NCCN3CCOCC3)cc2c1Nc1ccc(Oc2ccccc2)cc1` [Example 338] it is 0.15 µM; for `CN(C)CCCn1cc(CNc2cc(Br)c3ncc(C#N)c(Nc4ccc(F)c(Cl)c4)c3c2)nn1` [Example 480] it is 0.02 µM.
`N#Cc1cnc2ccc(NCc3cccc(C(=O)O)c3)cc2c1Nc1ccc(F)c(Cl)c1` [Example 398]: the IC50 was 0.18 µM.
On the same count and under the same terms, the figure for `CN(C)C(=O)c1cc(NCc2cccnc2)cc2c(Nc3cccc(Cl)c3)c(C#N)cnc12` [Example 376] is 0.4 µM.
Molecule `N#Cc1cnc2ccc(NCc3cc[nH]n3)cc2c1Nc1ccc(F)c(Cl)c1` [Example 382] gave an IC50 of 0.074 µM.
On the same count and under the same terms, the result for `N#Cc1cnc2c(Cl)cc(NCc3cn(CCCN4CCCCC4)nn3)cc2c1Nc1ccc(F)c(Cl)c1` [Example 539] reads 0.0011 µM; that for `CCN1CC(CCn2cc(CNc3cc(Cl)c4ncc(C#N)c(Nc5ccc(F)c(Cl)c5)c4c3)nn2)N(c2ccccc2)C1=S` (stereo not shown) [Example 617], 0.13 µM; that for `Cn1ccnc1CNc1ccc2ncc(C#N)c(NC(C)(C)C)c2c1` [Example 407], 5.1 µM.
The molecule `N#Cc1cnc2c(Cl)cc(NCc3cn(CC4CCCCC4)nn3)cc2c1Nc1ccc(F)c(Cl)c1` [Example 585] yielded an IC50 of 0.79 µM.
Molecule `CN(C)CCCc1nc[nH]c1CNc1cc(Cl)c2ncc(C#N)c(Nc3ccc(F)c(Cl)c3)c2c1` [Example 461] came in with an IC50 of 0.13 µM.
The same measure, in the same setting: the figure for `N#Cc1cnc2c(Cl)cc(NCc3nc[nH]n3)cc2c1Nc1ccc(F)c(Cl)c1` [Example 483] is 0.1 µM; for `CC(C)(C)OC(=O)N1CCC(n2cc(CNc3cc(Br)c4ncc(C#N)c(Nc5ccc(F)c(Cl)c5)c4c3)nn2)CC1` [Example 493] it is 0.25 µM.
Molecule `CN(Cc1cn(C)cn1)c1cc(Br)c2ncc(C#N)c(Nc3ccc(F)c(Cl)c3)c2c1` [Example 611] displayed an IC50 of over 3 µM.
Same read-out and setting: the result for `N#Cc1cnc2c(F)cc(NCc3cncn3O)cc2c1Nc1ccc(F)c(Cl)c1` [Example 437] reads 0.2 µM.

The same assay, now with this note: Tpl2/Cot kinase, GST-MEK1 substrate, 50 uM ATP.
On to `N#Cc1cnc2c(Cl)cc(NCc3cn(CC4CCCCC4)nn3)cc2c1Nc1ccc(F)c(Cl)c1` [Example 755], for which the half-inhibitory concentration (IC50) was 0.79 µM.
Still for that read-out and setting: the figure for `CN1CCCC1CCNC(=O)Cn1cc(CNc2cc(Cl)c3ncc(C#N)c(Nc4ccc(F)c(Cl)c4)c3c2)nn1` (stereo not shown) [Example 651] is 0.0069 µM; for `CN(C)CCNCC(=O)N1CCCC(CNc2cc(Cl)c3ncc(C#N)c(Nc4ccc(F)c(Cl)c4)c3c2)C1` (stereo not shown) [Example 920] it is 0.86 µM; for `CC(=O)N1CCC(Nc2cc(Cl)c3ncc(C#N)c(Nc4ccc(F)c(Cl)c4)c3c2)C1` (stereo not shown) [Example 871] it is 0.15 µM.
The same measure, in the same setting: the result for `CCN1CCC(Cn2cc(CNc3cc(Br)c4ncc(C#N)c(Nc5ccc(F)c(Cl)c5)c4c3)nn2)CC1` [Example 735] reads 0.04 µM; that for `CN(C)C(=O)N1CCC[C@@H]1Cn1cc(CNc2cc(Cl)c3ncc(C#N)c(Nc4ccc(F)c(Cl)c4)c3c2)nn1` [Example 897], 0.11 µM; that for `CN1CCCN(CCCn2cc(CNc3cc(Cl)c4ncc(C#N)c(Nc5ccc(F)c(Cl)c5)c4c3)nn2)CC1` [Example 794], 0.048 µM.
Still for that read-out and setting: the result for `N#Cc1cnc2c(Cl)cc(NC3CCN(Cc4cccnc4)CC3)cc2c1Nc1ccc(F)c(Cl)c1` [Example 869] reads 0.82 µM.
Take `CC(=O)N1CCCC(Nc2cc(Cl)c3ncc(C#N)c(Nc4ccc(F)c(Cl)c4)c3c2)C1` (stereo not shown) [Example 872]: half-maximal inhibition (IC50) was put at 0.096 µM.
Still for that read-out and setting: the result for `COC(=O)c1cc(Cl)c2ncc(C#N)c(Nc3ccc(F)c(Cl)c3)c2c1` [Example 760] reads over 3 µM.

Still in this assay, the particulars now being: Tpl2/Cot kinase, GST-MEK1 substrate, 50 uM ATP, 1 h at 30° C.; Table 2.
Molecule `N#Cc1cnc2c(Cl)cc(NCc3cn(C4CCC(O)CC4)nn3)cc2c1Nc1ccc(F)c(Cl)c1` (stereo not shown) [Example 1041] registered an IC50 of 0.0057 µM.
The same measure, in the same setting: the result for `CC(C)(C)OC(=O)N1CCC(n2cc(CNc3cc(Cl)c4ncc(C#N)c(Nc5ccc(Oc6ccccc6)cc5)c4c3)nn2)CC1` [Example 989] reads 0.4 µM; that for `N#Cc1cnc2c(Cl)cc(NCC3CCCN(C(=O)CNCc4ccccn4)C3)cc2c1Nc1ccc(F)c(Cl)c1` (stereo not shown) [Example 922], 1.69 µM.
The same measure, in the same setting: the figure for `CN(C)C(=O)N1CCN(CCn2cc(CNc3cc(Cl)c4ncc(C#N)c(Nc5ccc(F)c(Cl)c5)c4c3)nn2)CC1` [Example 961] is 0.031 µM; for `N#Cc1cnc2c(Cl)cc(NCc3cn(C4CCC(NC5CC5)CC4)nn3)cc2c1Nc1ccc(F)c(Cl)c1` (stereo not shown) [Example 1040] it is 0.017 µM; for `N#Cc1cnc2c(Cl)cc(NCc3cn(CCN4CCCCCC4)nn3)cc2c1NC1CCCCCC1` [Example 949] it is 0.46 µM.
In turn, `CS(=O)(=O)N1C2CCC1CC(n1cc(CNc3cc(Cl)c4ncc(C#N)c(Nc5ccc(F)c(Cl)c5)c4c3)nn1)C2` (stereo not shown) [Example 1050] gave an IC50 of 0.046 µM.
